Results published in patent publication US9113629B2, “4-amino-6-(4-substituted-phenyl)-picolinates and 6-amino-2-(4-substituted-phenyl)-pyrimidine-4-carboxylates and their use as herbicides” (DOW AGROSCIENCES LLC, priority 2013, dated 2015).
Read-outs that look alike come from different tables or passages of the source.

How the values were obtained:
[1] = test system: Key Broadleaf Weed and Crop Species; experiment: Post-emergent Test II herbicidal activity (Table 5); type: in vivo; conditions: post-emergence, 336 h, 14 days after application; for pest or weed control at 70 g/ha: application rate 70 g ai/ha; for pest or weed control at 140 g/ha: application rate 140 g ai/ha
How it was run: (§1)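 Plants grown in Metro-Mix 360 (pH 6.0–6.8) in a greenhouse (~15 h photoperiod, 23–29 °C day) to first or second true leaf stage, then sprayed with compound in acetone/DMSO/aqueous crop-oil-surfactant carrier at 187 L/ha by track sprayer. Injury visually scored 0–100% versus untreated plants after 14 d.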

[2] = test system: Key Grass and Sedge Weeds as well as Grass Crops; experiment: Post-emergent Test II herbicidal activity (Table 6); type: in vivo; conditions: post-emergence, 336 h; for pest or weed control at 70 g/ha: 70 g ai/ha; for pest or weed control at 140 g/ha: 140 g ai/ha
How it was run: as §1

[3] = ABUTH: velvetleaf (Abutilon theophrasti), read-out: Visual Growth Reduction (%) 14 Days After Application, ABUTH
[4] = AMARE: redroot pigweed (Amaranthus retroflexus), read-out: Visual Growth Reduction (%) 14 Days After Application, AMARE
[5] = BRSNN: oilseed-rape, canola (Brassica napus), read-out: Visual Growth Reduction (%) 14 Days After Application, BRSNN
[6] = CHEAL: lambsquarters (Chenopodium album), read-out: Visual Growth Reduction (%) 14 Days After Application, CHEAL
[7] = EPHHL: wild poinsettia (Euphorbia heterophylla), read-out: Visual Growth Reduction (%) 14 Days After Application, EPHHL
[8] = HELAN: sunflower (Helianthus annuus), read-out: Visual Growth Reduction (%) 14 Days After Application, HELAN
[9] = VIOTR: wild pansy (Viola tricolor), read-out: Visual Growth Reduction (%) 14 Days After Application, VIOTR
[10] = CYPES: yellow nutsedge (Cyperus esculentus), read-out: Visual Growth Reduction (%) 14 Days After Application, CYPES
[11] = DIGSA: crabgrass (Digitaria sanguinalis), read-out: Visual Growth Reduction (%) 14 Days After Application, DIGSA
[12] = ECHCG: barnyardgrass (Echinochloa crus-galli), read-out: Visual Growth Reduction (%) 14 Days After Application, ECHCG
[13] = ORYSA: rice (Oryza sativa), crop, read-out: Visual Growth Reduction (%) 14 Days After Application, ORYSA
[14] = SETFA: giant foxtail (Setaria faberi), read-out: Visual Growth Reduction (%) 14 Days After Application, SETFA
[15] = SORVU: grain sorghum (Sorghum vulgare), read-out: Visual Growth Reduction (%) 14 Days After Application, SORVU
[16] = TRZSS (wheat, Triticum aestivum), crop, read-out: Visual Growth Reduction (%) 14 Days After Application, TRZSS
[17] = ZEAMX: maize, corn (Zea mays), crop, read-out: Visual Growth Reduction (%) 14 Days After Application, ZEAMX

Compound	pest or weed control at 70 g/ha [1, 3] [%]	pest or weed control at 140 g/ha [1, 3] [%]	pest or weed control at 70 g/ha [1, 4] [%]	pest or weed control at 140 g/ha [1, 4] [%]	pest or weed control at 70 g/ha [1, 5] [%]	pest or weed control at 140 g/ha [1, 5] [%]	pest or weed control at 70 g/ha [1, 6] [%]	pest or weed control at 140 g/ha [1, 6] [%]	pest or weed control at 70 g/ha [1, 7] [%]	pest or weed control at 140 g/ha [1, 7] [%]	pest or weed control at 70 g/ha [1, 8] [%]	pest or weed control at 140 g/ha [1, 8] [%]	pest or weed control at 70 g/ha [1, 9] [%]	pest or weed control at 140 g/ha [1, 9] [%]	pest or weed control at 70 g/ha [2, 10] [%]	pest or weed control at 140 g/ha [2, 10] [%]	pest or weed control at 70 g/ha [2, 11] [%]	pest or weed control at 140 g/ha [2, 11] [%]	pest or weed control at 70 g/ha [2, 12] [%]	pest or weed control at 140 g/ha [2, 12] [%]	also measured
C#Cc1ccc(-c2nc(N)c(OC)c(C(=O)OC)n2)c(F)c1 [Compound 59]	0 to 29	0 to 29	0 to 29	0 to 29	30 to 44	45 to 59	0 to 29	60 to 74	0 to 29	0 to 29	60 to 74	60 to 74	0 to 29	0 to 29	0 to 29	0 to 29	0 to 29	0 to 29	0 to 29	0 to 29	pest or weed control at 70 g/ha [2, 13]: 0 to 29%; pest or weed control at 140 g/ha [2, 13]: 0 to 29%; pest or weed control at 70 g/ha [2, 14]: 0 to 29%; pest or weed control at 140 g/ha [2, 14]: 0 to 29%; pest or weed control at 70 g/ha [2, 15]: 0 to 29%; pest or weed control at 140 g/ha [2, 15]: 0 to 29%; pest or weed control at 70 g/ha [2, 16]: 0 to 29%; pest or weed control at 140 g/ha [2, 16]: 0 to 29%; pest or weed control at 70 g/ha [2, 17]: 0 to 29%; pest or weed control at 140 g/ha [2, 17]: 0 to 29%; melting point: 203 to 205 °C
COC(=O)c1ccc(-c2nc(C(=O)OC)c(Cl)c(N)c2F)cc1 [Compound 190, methyl 4-amino-3-chloro-5-fluoro-6-(4-(methoxycarbonyl)phenyl)picolinate]	0 to 29	0 to 29	0 to 29	30 to 44	0 to 29	0 to 29	60 to 74	30 to 44	0 to 29	0 to 29	0 to 29	0 to 29	0 to 29	0 to 29	0 to 29	0 to 29	0 to 29	0 to 29	0 to 29	0 to 29	pest or weed control at 70 g/ha [2, 13]: 0 to 29%; pest or weed control at 140 g/ha [2, 13]: 0 to 29%; pest or weed control at 70 g/ha [2, 14]: 0 to 29%; pest or weed control at 140 g/ha [2, 14]: 0 to 29%; pest or weed control at 70 g/ha [2, 15]: 0 to 29%; pest or weed control at 140 g/ha [2, 15]: 0 to 29%; pest or weed control at 70 g/ha [2, 16]: 0 to 29%; pest or weed control at 140 g/ha [2, 16]: 0 to 29%; pest or weed control at 70 g/ha [2, 17]: 0 to 29%; pest or weed control at 140 g/ha [2, 17]: 0 to 29%; melting point: 163 to 165 °C
Nc1cc(-c2ccc(Br)c(F)c2F)nc(C(=O)O)c1Cl [Compound 91]	85 to 94	95 to 100	95 to 100	95 to 100	75 to 84	85 to 94	85 to 94	85 to 94	95 to 100	95 to 100	85 to 94	85 to 94	95 to 100	95 to 100	95 to 100	95 to 100	85 to 94	85 to 94	95 to 100	95 to 100	pest or weed control at 70 g/ha [2, 13]: 0 to 29%; pest or weed control at 140 g/ha [2, 13]: 0 to 29%; pest or weed control at 70 g/ha [2, 14]: 75 to 84%; pest or weed control at 140 g/ha [2, 14]: 85 to 94%; pest or weed control at 70 g/ha [2, 15]: 75 to 84%; pest or weed control at 140 g/ha [2, 15]: 75 to 84%; pest or weed control at 70 g/ha [2, 16]: 45 to 59%; pest or weed control at 140 g/ha [2, 16]: 45 to 59%; pest or weed control at 70 g/ha [2, 17]: 85 to 94%; pest or weed control at 140 g/ha [2, 17]: 85 to 94%; melting point: 173 to 175 °C
